The text below walks through data of patent publication US5192807A, “Siderophores as antiparasitic agents” (priority 1987, dated 1993).

In series [1] the test system is Plasmodium falciparum. Kind of series: Inhibition of Plasmodium falciparum growth (35S-methionine incorporation) and effect of adding iron. The series is classed as cell-based. Particulars: for effect of FeCl3 on inhibition: 2.10^-3 M FeCl3 added immediately after the hydroxamate; for effect of adding iron on the antiplasmodial action: iron added to the parasite culture; for antiplasmodial activity / parasite growth inhibition: in vitro, no iron added. The method, then:
FIG. 3b: the pool of hydroxamate (10 ml to 15 ml) collected by the ion exchange chromatography was placed in a Sephadex G50 column (25×2 cm) and eluted with 100 mM of phosphate buffer (pH 7.0), at a flow rate of 30 ml/h. Fractions (2 ml to 3 ml) were collected and the hydroxamate measured (A526 nm absorbance -- --), and the following were also measured: inhibition of Plasmodium falciparum growth (--.smallcircle.--) and A220 nm absorbance (--Δ--).
0.2 μm of the filtered fractions were placed in a synchronized culture of Plasmodium falciparum at a final concentration of 2.5%, as described in Table I. 100 μCi/ml of methionine marked with sulfur 35 (Amersham) were added on day 1 (rings). The parasite culture was collected on day 2 (schizonts) and the incorporation of ^35 S-methionine was measured in 10% TCA.

For another series, the system named is monkeys. Particulars: monkey, in vivo.
The test system of series [2] is Plasmodium falciparum. Briefly: Quantitative in vitro growth inhibition of Plasmodium falciparum. The series is classed as cell-based. Particulars: 2.5 μg/ml (about 10^-5 M).
A further series concerns bacteria. Particulars: Williams et al 1986; cited from earlier work.
Series [3] relates to red blood cells infected with Plasmodium falciparum. Kind of series: Penetration and concentration in parasitized red blood cells. It counts as cell-based, human. Particulars: for penetration into parasitized red blood cells: schizont stage, aerobactin 7 μg/ml, desferioxamine 50 μg/ml. The source says:
(§1) This test studies the incorporation of […] in normal red blood cells and in red blood cells infected with Plasmodium falciparum.
(§2) Tritium-marked aerobactin (0.2 mCi/mmol to 0.3 mCi/mmol) was purified as described above (FIG. 3) from a supernatant of strains of K5 1101 Klebsiella pneumoniae culture cultivated in an RPMI* medium containing 100 μCi/ml of tritium-marked lysine.
Desferioxamine marked with iodine 125 (50 mCi/mmol) was obtained by the iodine-producing technique.
(§3) The tritium-containing aerobactin (7 μg/ml) and the ^125 I containing desferioxamine (50 μg/ml) were introduced into synchronized cultures of Plasmodium falciparum (schizont stage, 20% parasitemia, hematocrit: 5%) and in a suspension of red blood cells (5% hematocrit). The cultures were incubated at 37° C. and 50 μl samples were taken at different times.
(§4) For each sample, the following were measured:
(§5) 1. The cpm in the culture supernatant;
2. The cpm in the supernatant of red blood cells lysis (the red blood cells were lysed in 40 vol. of RPMI diluted ten times and the free parasites were precipitated using a centrifuge rotating at 5,000 rpm for 5 min and were washed in RPMI); and
3. The cpm associated with free parasites.
The parasites are subsequently lysed in order to prepare soluble and membrane fractions as described previously (Braun-Breton et al, Molecular Biochem. Parasitol., 1986, 20, pp. 33-43).

Series [4] deals with schizonts of Plasmodium falciparum. Kind of series: Kinetics of inhibition of 35S-methionine incorporation in schizonts. It counts as cell-based. Particulars: for incorporation of 35S-methionine in the proteins of schizonts: FIG. 7, aerobactin 50 μg/ml, desferioxamine 500 μg/ml. The method, then: Time in minutes is plotted along the X axis and the percentage of inhibited schizonts is plotted up the Y axis.
The schizonts of Plasmodium falciparum were concentrated from a culture, they were washed and cultured at 37° C. for one hour. Solutions of hydroxamate (-- -- 50 μg/ml aerobactin and --.smallcircle.-- 500 μg/ml of desferioxamine) were added to the schizonts. Incubation at 37° C. continued and samples were taken at various different times. The hydroxamate was removed by washing the cells, and the cells were again cultured in the presence of 250 μCi/ml ^35 S-methionine for one hour.
The cultures were collected and the degree to which ^35 S-methionine had been incorporated was measured.

The next series has as its system fibroblasts. Kind of series: Toxicity on a culture of fibroblasts. Particulars: purified. The series is classed as cell-based.
The test system of a further series is normal red blood cells. Briefly: Concentration in healthy red blood cells. The series is classed as cell-based, human. Particulars: tritium-marked, 7 μg/ml, 37° C. The method, then: as §1, §2, §3, §4, §5
2. The cpm in the supernatant of red blood cells lysis (the red blood cells were lysed in 40 vol. of RPMI diluted ten times and the free parasites were precipitated using a centrifuge rotating at 5,000 rpm for 5 min and were washed in RPMI); and […]

Another series relates to P. falciparum. Kind of series: Parasite multiplication and survival of mice infected with P. falciparum. It counts as in vivo. Particulars: FIG. 5.
A further series relates to L fibroblasts. Briefly: 35S-methionine incorporation in L fibroblasts. It counts as cell-based. Particulars: 5 hours.
A further series deals with Plasmodium chaubaudi. Kind of series: Parasite multiplication and survival of mice infected with Plasmodium chaubaudi. It counts as in vivo.
For series [5] the following is noted: Williams et al 1986; cited from earlier work.
The test system of the next series is mice. Kind of series: Toxicity in mice. Particulars: injection. It counts as in vivo.
The conditions of series [6]: cited from earlier work.

“Also recorded” adds a separate entry of the source.

As to `CC(=O)N(O)CCCCC(NC(=O)CC(O)(CC(=O)NC(CCCCN(O)C(C)=O)C(=O)O)C(=O)O)C(=O)O` (stereo not drawn) [aerobactin], in the series on Plasmodium falciparum [1], the “effect of FeCl3 on inhibition” value is reported as “little effect on inhibition” and the “effect of adding iron on the antiplasmodial action” value was “does not reverse the plasmocidin action”. The “plasmocidin activity after purification” value in the series on Plasmodium falciparum [1] (Dowex-1 and Sephadex G50 purified, FIG. 3) is listed as “plasmocidin activity subsists”. Moreover, the “toxic effect in monkeys” value with monkeys is “no toxic effect has been observed”. Further, in the series with Plasmodium falciparum [2], the “inhibition of growth of Plasmodium falciparum” value turned out to be 100%. The “concentration stimulating bacterial growth relative to enterochelin” value in the series with bacteria is reported as 500 times smaller. Besides, the “location of intraparasitic radioactivity” value in series [3] (lysed parasites, soluble and membrane fractions) is given as “recovered in the soluble fraction of the parasites”. For the same molecule, in series [3] (37° C.), the “penetration into parasitized red blood cells” value was “penetrates quickly into parasitized red blood cells”. Besides, the “detection in the cytoplasm of the red blood cells” value in series [3] (supernatant of red blood cell lysis) was “not detected”. In series [3] (tritium-marked, 7 μg/ml, 37° C.), the “concentration in the parasitized cell” value was “at least 200 times”. Further, the “incorporation of 35S-methionine in the proteins of schizonts” value in series [4] is recorded as “quickly suppresses the incorporation”. The inhibition at 50 µg/mL in series [4] (Plasmodium falciparum, 2 h, 50 μg/ml, within two hours, 37° C., read-out: schizonts with inhibited incorporation of methionine) stood at 90%. In addition, in the series with fibroblasts, the “toxic effect on fibroblasts in culture” value is given as “no toxic effect on the cells”. For the same molecule, the “concentration in healthy red blood cells” value with normal red blood cells is recorded as “not concentrated in healthy red blood cells”. The “parasite multiplication and survival of mice (P. falciparum)” value with P. falciparum is “The same effect has been observed”. In addition, the “inhibition of methionine incorporation in L fibroblasts” value in the series with L fibroblasts was “Such activity was not found”. The survival of mice entry in the series on Plasmodium chaubaudi (7.5 μg) was “do not survive”. Further, in the series with Plasmodium chaubaudi (purified, intravenous, 15 μg/mouse), the “parasite multiplication and survival of mice” value was “causes parasite multiplication to be slowed down, allowing the mice to survive”. Moreover, in series [5], the “affinity for ferric derivatives relative to enterochelin” value is “lower affinity for ferric derivatives than enterochelin”. Also, the toxicity for mice entry in the series with mice is “not toxic for mice; also recorded: no toxic effect has been observed”.

For the molecule `CC(=O)N(O)CCCCCNC(=O)CCC(=O)N(O)CCCCCNC(=O)CCC(=O)N(O)CCCCCN` [Desferioxamine], in the series on Plasmodium falciparum [1], the “effect of FeCl3 on inhibition” value was “completely reverses the inhibition”, the “antiplasmodial activity / parasite growth inhibition” value is “inhibits parasite growth” and the “effect of adding iron on the antiplasmodial action” value is “totally reversed”. For the same molecule, the “penetration into parasitized red blood cells” value in series [3] (37° C.) is recorded as “does not penetrate into parasitized red blood cells”. Besides, the “incorporation of 35S-methionine in the proteins of schizonts” value in series [4] is given as “no action on the incorporation of methionine”.

In the case of `Cl.NCCCC[C@H](N)C(=O)NO` [L-Lysine hydroxamate hydrochloride], in the series with Plasmodium falciparum [1], the “antiplasmodial activity / parasite growth inhibition” value is listed as “does not exhibit antiplasmodial activity”.

Regarding `CCN(CC)CCCC(C)Nc1ccnc2cc(Cl)ccc12` (stereo not drawn) [chloroquine], the “toxicity (prior art)” value in series [6] is recorded as “do not present significant toxicity”.
